In US20250236902A1 (priority 2022, published 2025):
Where two headings read alike, the source gives them in different places.

Tests used:
H3N2 NA = type: biochemical, influenza H3N2
[1] = system: 3NACP (Clostridium perfringens NA); type: biochemical; details: 3 mU/mL 3NACP; 1 μM inhibitor vs without
[2] = system: 3NACP (Clostridium perfringens NA); type: binding; details: 0.3 mU/mL 3NACP

Compound: CCC(CC)[C@H](NC(C)=O)[C@@H]1[C@H](O)[C@@H](C(=O)O)C[C@H]1N=C(N)N [Peramivir]
- inhibition effect on enzymatic response of AuE-H3 to H3N2 NA (normalized RCT) (H3N2 NA): moderate inhibition effect

Compound: CCOC(=O)C1=C[C@@H](OC(CC)CC)[C@H](NC(C)=O)[C@@H](N)C1 [Oseltamivir]
- impedimetric response of AuE-H3 to 3NACP (1/Normalized RCT) with inhibitor [1]: decrease in response
- inhibition effect on enzymatic response of AuE-H3 to H3N2 NA (normalized RCT) (H3N2 NA): weak inhibition effect
- adsorption response of GCE-H3 to 3NACP (Normalized RCT) with inhibitor ([2]; 0.1 μM inhibitor, vs 0 μM): lower adsorption response
- adsorption response of GCE-H3 to 3NACP (Normalized RCT) with inhibitor ([2]; 1 μM inhibitor): further decrease in response

Compound: CC(=O)N[C@H]1[C@H]([C@H](O)[C@H](O)CO)OC(C(=O)O)=C[C@@H]1N=C(N)N [Zanamivir]
- inhibition effect on enzymatic response of AuE-H3 to H3N2 NA (normalized RCT) (H3N2 NA): strongest effect
